Results: ChEMBL document CHEMBL1811878, “Heteroatom-substituted analogues of orphan nuclear receptor small heterodimer partner ligand and apoptosis inducer (E)-4-[3-(1-Adamantyl)-4-hydroxyphenyl]-3-chlorocinnamic acid” (J Med Chem, 2011)
≈ marks a conversion by molar mass, not a printed value. Blank lines part the entries; values can stand above or below the compound they belong to. Calls of active or inactive are those of the source. The calls are words filed in the database; no cut-off is given here.

What was measured:
[1] = tested on: Mus musculus; assay: Toxicity in ICR-SCIDS mouse assessed as increase in body weight at 20 mg/kg, iv qd administered at a 25% increment in dose each day for 7 days measured on day 1; assay type: organism-based; set-up: dose 20 mg/kg, route intravenous; details: in vivo, 168 h
[2] = tested on: HT-29; assay: Induction of apoptosis in human HT-29 cells assessed as decrease in ATP level after 72 hrs by luminescence assay; assay type: functional, cell-based
[3] = tested on: KG-1; assay: Growth inhibition in human KG1 cells expressing p53 gene at 5 uM after 48 hrs by MTT assay; assay type: functional; details: KG-1, 48 h, read-out: GI
[4] = tested on: KG-1; assay: Induction of apoptosis in human KG1 cells assessed as DNA fragmentation at 5 uM after 48 hrs by acridine orange staining method; assay type: functional
[5] = Aqueous solubility of the compound in PBS at pH 7.2 by UV spectrophotometric analysis; assay type: physicochemical; details: buffer
[6] = tested on: HT-29; assay: Induction of apoptosis in human HT-29 cells assessed as decrease in ATP level at 10 uM after 72 hrs by luminescence assay relative to control; assay type: functional; set-up: scale not given: the % may be the effect or the level left
[7] = Aqueous solubility of the compound in water at pH 5 by UV spectrophotometric analysis; assay type: physicochemical
[8] = tested on: A549; assay: Induction of apoptosis in human A549 cells assessed as decrease in ATP level at 10 uM after 72 hrs by luminescence assay; assay type: functional, cell-based
[9] = tested on: PC-3; assay: Induction of apoptosis in human PC3 cells assessed as decrease in ATP level at 5 uM after 72 hrs by luminescence assay; assay type: functional; set-up: scale not given: the % may be the effect or the level left
[10] = tested on: MDA-MB-231; assay: Induction of apoptosis in retinoid-resistant human MDA-MB-231 cells expressing p53 and ERbeta gene assessed as DNA fragmentation at 1 uM after 48 hrs by acridine orange staining method; assay type: functional
[11] = tested on: MDA-MB-231; assay: Induction of apoptosis in retinoid-resistant human MDA-MB-231 cells expressing p53 and Erbeta gene assessed as DNA fragmentation at 0.1 to 1 uM after 48 hrs by acridine orange staining method; assay type: functional, cell-based
[12] = tested on: A549; assay: Induction of apoptosis in human A549 cells assessed as decrease in ATP level at 5 uM after 72 hrs by luminescence assay; assay type: functional; set-up: scale not given: the % may be the effect or the level left
[13] = tested on: MDA-MB-231; assay: Growth inhibition of retinoid-resistant human MDA-MB-231 cells expressing p53 and ERbeta gene at 1 uM after 48 hrs by MTT assay; assay type: functional; details: MDA-MB-231, 48 h, read-out: GI
[14] = tested on: MDA-MB-231; assay: Induction of apoptosis in retinoid-resistant human MDA-MB-231 cells expressing p53 and ERbeta gene assessed as DNA fragmentation at 1 uM after 24 hrs by acridine orange staining method; assay type: functional
[15] = tested on: A549; assay: Induction of apoptosis in human A549 cells assessed as decrease in ATP level after 72 hrs by luminescence assay; assay type: functional, cell-based
[16] = tested on: HT-29; assay: Induction of apoptosis in human HT-29 cells assessed as decrease in ATP level at 10 uM after 72 hrs by luminescence assay; assay type: functional; set-up: scale not given: the % may be the effect or the level left
[17] = tested on: HT-29; assay: Induction of apoptosis in human HT-29 cells assessed as decrease in ATP level at 5 uM after 72 hrs by luminescence assay; assay type: functional; set-up: scale not given: the % may be the effect or the level left
[18] = tested on: Mus musculus; assay: Toxicity in ICR-SCIDS mouse assessed as increase in body weight at 20 mg/kg, iv qd administered at a 25% increment in dose each day for 7 days measured on day 4; assay type: organism-based; set-up: dose 20 mg/kg, route intravenous; details: in vivo, 168 h
[19] = tested on: KG-1; assay: Growth inhibition in human KG1 cells expressing p53 gene at 1 uM after 48 hrs by MTT assay; assay type: functional; details: KG-1, 48 h, read-out: GI
[20] = tested on: MDA-MB-231; assay: Growth inhibition of retinoid-resistant human MDA-MB-231 cells expressing p53 and Erbeta gene at 0.1 to 1 uM after 48 hrs by MTT assay; assay type: functional, cell-based
[21] = tested on: Mus musculus; assay: Toxicity in ICR-SCIDS mouse assessed as decrease in body weight at 20 mg/kg, iv qd administered at a 25% increment in dose each day for 7 days measured on day 8 relative to control; assay type: organism-based; set-up: dose 20 mg/kg, route intravenous; scale not given: the % may be the effect or the level left; details: in vivo, 168 h
[22] = Induction of apoptosis in mouse MMTV-Wnt-1 cells assessed as cell viability after 72 hrs by DAPI staining based cell counting; assay type: functional
[23] = Induction of apoptosis in retinoid-resistant p53 null human HL60R cells assessed as DNA fragmentation at 0.1 uM after 24 hrs by acridine orange staining method; assay type: functional
[24] = tested on: Mus musculus; assay: Toxicity in ICR-SCIDS mouse assessed as decrease in body weight at 20 mg/kg, iv qd administered at a 25% increment in dose each day for 7 days measured on day 7 relative to body weight on day 1; assay type: organism-based; set-up: dose 20 mg/kg, route intravenous; scale not given: the % may be the effect or the level left; details: in vivo, 168 h
[25] = tested on: KG-1; assay: Induction of apoptosis in human KG1 cells expressing p53 gene assessed as DNA fragmentation at 1 uM after 48 hrs by acridine orange staining method; assay type: functional
[26] = Induction of apoptosis in retinoid-resistant p53 null human HL60R cells assessed as DNA fragmentation at 1 uM after 24 hrs by acridine orange staining method; assay type: functional
[27] = tested on: MDA-MB-231; assay: Growth inhibition of retinoid-resistant human MDA-MB-231 cells expressing p53 and ERbeta gene at 1 uM after 24 hrs by MTT assay; assay type: functional; details: MDA-MB-231, 24 h, read-out: GI
[28] = tested on: PC-3; assay: Induction of apoptosis in human PC3 cells assessed as decrease in ATP level after 72 hrs by luminescence assay; assay type: functional, cell-based
[29] = tested on: PC-3; assay: Induction of apoptosis in human PC3 cells assessed as decrease in ATP level at 10 uM after 72 hrs by luminescence assay; assay type: functional, cell-based
[30] = molecular target: T1, Retinoic acid receptor alpha (Homo sapiens) (UniProt P10276); assay: Transcriptional activation of human RARalpha at 1 uM by (TREpal)2-tk-CAT reporter gene assay
T1 sequence (whole entry): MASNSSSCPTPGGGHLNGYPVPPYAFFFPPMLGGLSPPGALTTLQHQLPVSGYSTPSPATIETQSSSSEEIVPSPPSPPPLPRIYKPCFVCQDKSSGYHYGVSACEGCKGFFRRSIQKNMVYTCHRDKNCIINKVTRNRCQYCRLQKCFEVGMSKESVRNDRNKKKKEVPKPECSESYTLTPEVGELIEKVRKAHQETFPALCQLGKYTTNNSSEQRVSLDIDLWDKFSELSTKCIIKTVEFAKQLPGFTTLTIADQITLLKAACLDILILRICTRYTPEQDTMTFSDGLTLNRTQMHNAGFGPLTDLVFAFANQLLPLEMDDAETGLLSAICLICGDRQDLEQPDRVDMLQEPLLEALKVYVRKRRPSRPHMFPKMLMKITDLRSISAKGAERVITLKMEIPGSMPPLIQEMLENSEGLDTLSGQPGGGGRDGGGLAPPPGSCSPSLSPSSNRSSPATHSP

[31] = molecular target: T2, Retinoic acid receptor beta (Homo sapiens) (UniProt P10826); assay: Transcriptional activation of human RARbeta at 0.1 uM by luciferase reporter gene assay relative to control
T2 sequence (whole entry): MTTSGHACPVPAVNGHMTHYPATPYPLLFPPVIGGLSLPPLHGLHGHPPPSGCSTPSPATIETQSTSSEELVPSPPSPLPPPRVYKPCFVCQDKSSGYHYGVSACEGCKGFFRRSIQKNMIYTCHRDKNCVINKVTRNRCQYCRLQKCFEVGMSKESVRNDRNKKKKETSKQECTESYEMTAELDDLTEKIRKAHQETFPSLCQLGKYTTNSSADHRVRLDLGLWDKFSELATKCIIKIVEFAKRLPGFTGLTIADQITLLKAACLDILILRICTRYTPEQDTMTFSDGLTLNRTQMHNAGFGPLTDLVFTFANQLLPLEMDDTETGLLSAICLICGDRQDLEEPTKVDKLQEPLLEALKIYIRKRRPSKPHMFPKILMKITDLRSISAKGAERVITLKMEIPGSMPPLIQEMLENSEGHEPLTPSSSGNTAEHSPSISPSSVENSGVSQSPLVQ

[32] = molecular target: T1, Retinoic acid receptor alpha (Homo sapiens); assay: Transcriptional activation of human RARalpha at 0.1 uM by luciferase reporter gene assay relative to control
[33] = molecular target: T3, Retinoic acid receptor gamma (Homo sapiens) (UniProt P13631); assay: Transcriptional activation of human RARgamma at 0.1 uM by luciferase reporter gene assay relative to control
T3 sequence (whole entry): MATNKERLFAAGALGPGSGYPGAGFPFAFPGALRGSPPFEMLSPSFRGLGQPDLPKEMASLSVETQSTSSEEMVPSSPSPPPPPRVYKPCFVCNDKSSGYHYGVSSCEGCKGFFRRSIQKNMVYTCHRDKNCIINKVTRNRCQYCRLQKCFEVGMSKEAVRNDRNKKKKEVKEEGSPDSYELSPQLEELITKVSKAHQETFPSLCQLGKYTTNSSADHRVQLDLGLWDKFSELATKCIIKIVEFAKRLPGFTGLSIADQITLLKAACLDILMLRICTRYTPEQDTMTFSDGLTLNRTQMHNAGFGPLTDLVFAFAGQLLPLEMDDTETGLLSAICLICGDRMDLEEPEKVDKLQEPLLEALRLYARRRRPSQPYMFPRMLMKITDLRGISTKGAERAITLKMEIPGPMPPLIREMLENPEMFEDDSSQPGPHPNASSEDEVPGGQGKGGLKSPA

[34] = molecular target: T2, Retinoic acid receptor beta (Homo sapiens); assay: Transcriptional activation of human RARbeta at 1 uM by (TREpal)2-tk-CAT reporter gene assay
[35] = molecular target: T3, Retinoic acid receptor gamma (Homo sapiens); assay: Transcriptional activation of human RARgamma at 1 uM by (TREpal)2-tk-CAT reporter gene assay

solubility [5]: soluble | solubility [7]: 4.5 µM (≈ 1.84 µg/mL)
Structure (SMILES): O=C(O)/C=C/c1ccc(-c2ccc(O)c(C34CC5CC(CC(C5)C3)C4)c2)c(Cl)c1
Activity [1]: 9.3% | Activity [2]: Dose-dependent effect | inhibition of growth at 5 µM [3]: 67% | Activity [4]: 55% | Activity [6]: <60% | Activity [8]: Active | Activity [9]: 30% | Activity [10]: 7% | Activity [11]: inactive | Activity [12]: 30% | inhibition of growth at 1 µM [13]: 43% | Activity [14]: 3% | Activity [15]: Dose-dependent effect | Activity [16]: >=40% | Activity [17]: 30% | Activity [18]: 9.3% | inhibition of growth at 1 µM [19]: 44% | growth inhibition (GI) [20]: inactive | Activity [21]: 62.7% | IC50 [22]: 281 nM | Activity [23]: 51% | Activity [24]: 90.4% | Activity [25]: 30% | Activity [26]: 94% | inhibition of growth at 1 µM [27]: 8% | Activity [28]: Dose-dependent effect | Activity [29]: Active

Activity [30]: 8% | fold change (FC) [31]: 6 | fold change (FC) [32]: 6 | fold change (FC) [33]: 25 | Activity [34]: 85% | Activity [35]: 103%
Structure (SMILES): O=C(O)/C=C/c1ccc(-c2ccc(O)c(C34CC5CC(CC(C5)C3)C4)c2)cc1 [ADAROTENE]
Activity [23]: 90% | Activity [26]: 98%
